Test results taken from patent publication US6255347A (priority 1997, dated 2001).

What was measured:
NIH 3T3 cells = test: Foci formation assay, inhibition of PMA induced neoplastic transformation of NIH 3T3 cells; format: cell-based
Experimental: (§1) NIH 3T3 cells (American Type Culture Collection, Rockville, Md.) were cultured in DMEM supplemented with 10% FBS inoculated at 10^4 cells/35 […] dish. […] PMA and ibuprofen were dissolved in DMSO and stored in 5% DMSO stock solutions that were diluted a 1000-fold with culture media prior to use. […] The media containing freshly added PMA and ibuprofen were changed every 60 hours for both the foci formation assay and PKCα analysis by Western blot.
Subsequent to washing with a tris/ saline buffer, the cells were stained with a solution of 4% aqueous Giemsa stain in phosphate buffer (pH 7.0). Foci of transformed cells were then visible by eye due to their high local density and verified by under light microscopy.

[1] = system: c-jun expression in NIH 3T3 cells; details: cited from earlier work
PKCα = PKCα translocation in NIH 3T3 cells (subcellular fractionation, Western blot); format: cell-based; details: for PKCα localization: PMA 0.02 μg/ml, 2% FBS
Experimental: as §1
(§2) The cells were washed twice with phosphate-buffered saline (PBS) at 37° C. and subsequently lysed and scraped in 1 ml ice-cold protein lysis buffer (20 mM Tris-HCl, pH7.4, 2 mM EGTA, 2 mM EDTA, […] leupeptin and […] aprotinin) at 4° C. […] Briefly, cells were homogenized 10× in 15 ml glass homogenizer with a tight-fitting pestle and centrifuged at 900×g for 10 min. The resulting supernatant was then centrifuged at 100,000×g for 60 min to produce a nucleus-free membrane fraction (pellet) and a cytosol fraction (supernatant) for Western blots. The 900×g nuclear pellet was suspended in the 2 ml lysis buffer containing 10% sucrose and 0.1% Triton X-100 and washed twice by centrifuging at 1000×g for 10 min, then resuspended in 1 ml of the same buffer without Triton X-100 for Western blots. The purity of the fractions was monitored by light microscopy. […] The samples were stored at -70° C. until analysis.
(§3) 15 μl of human plasma, 15 μl of rat plasma, CSF or 50 μg of rat brain protein were denatured with 35 μl of sample buffer at 95° C. for 4 min. Denatured proteins were separated by 10% SDS-polyacrylamide gel electrophoresis with a 50 μg or 20 μg protein load for each sample for APPs or PKC, respectively, and electrophoretically transferred from gel to nitrocellulose membrane. […] The immunoreactive bands were developed using enhanced chemilumenescence (ECL. Amersham Life Sci., Little Chalfont, UK), following extensive washing with the blocking buffer. The PKC bands were verified in each case by competitively blocking the signal with the peptide corresponding to each of PKCs. The bands were quantitated by scanning densitometry. Quantitative comparisons were made between samples processed simultaneously on one blot.

lung and gastric cancer = details: carcinogen induced; cited from earlier work
Ht-29 = details: cited from earlier work
[2] = Estimated unbound fraction of ibuprofen in culture media; format: in vitro ADME
[3] = cited from earlier work
A-427 = details: cited from earlier work
MCF 7/s = details: cited from earlier work
[4] = system: APPs secretion by NIH 3T3 cell lines; details: 50 μM, 20 h
APP = details: 10 mg/kg P.O. bid, 7 days
Experimental: as §2, §3
(§4) Male Sprague-Dawley rats (12 month) were obtained from Harlan-Sprague-Dawley, Inc. (Indianapolis, Ind.) and housed under controlled conditions of temperature humidity and light/dark cycle. […] Rat stomach and duodenum were collected for the quantitation of gastroduodenal lesions. […]

APPs = details: 10 mg/kg P.O. bid, 7 days
Experimental: as §2, §3, §4

UACC 375 = details: cited from earlier work
neutrophil = details: by chemotactic agents; cited from earlier work
rat colon cancer = details: carcinogen induced; cited from earlier work
[5] = system: mouse mammary glands cancer; details: carcinogen induced; cited from earlier work

For `CCCCCCCCCCCCCC(=O)O[C@@H]1[C@@H](C)[C@@]2(O)[C@@H](C=C(CO)C[C@]3(O)C(=O)C(C)=C[C@@H]23)[C@@H]2C(C)(C)[C@]12OC(C)=O` [PMA, phorbol 12-myristate 13-acetate], the “dish area occupied by foci” value (NIH 3T3 cells; PMA 0.02 μg/ml, 2% FBS, 6 weeks) is given as “over 50%”, the c-jun expression [1] is given as “transiently induces c-jun expression” and the PKCα localization (PKCα; 2 weeks) is given as “translocation from cytosol to membrane fractions, but interestingly translocation to the nuclear compartment was absent”. For the same molecule, the PKCα localization (PKCα; 30 min) was “translocation of PKCα to the membrane fraction and some indication of PKCα appearing in the nuclear fraction”, the PKCα localization (PKCα; 4 hours) was “clear association of PKCα with the nuclear fraction” and the PKCα localization (PKCα; 18 hours) was “remained at 18 hours despite its disappearance from the membrane and cytosolic fractions”. For the same molecule, the PKCα localization (PKCα; 48 hours) was “cytosolic PKCα had been regenerated but membrane and nuclear sites were not” and the PKCα translocation (PKCα; reduced media FBS plus PMA 0.02 μg/ml, 4 to 18 hours) was “significant translocation of PKCα to both nuclear and microsomal membranes”.

For `CC(C)Cc1ccc(C(C)C(=O)O)cc1` (stereo not drawn) [ibuprofen, α-4-(2-methylpropyl) benzeneacetic acid], the anticancer activity (lung and gastric cancer) is given as “demonstrated anticancer activity”, the inhibition of proliferation (Ht-29) is given as “inhibits the proliferation” and the “effect on NIH 3T3 cell growth patterns without PMA” value (NIH 3T3 cells; DMSO vehicle, no PMA) is given as “no effect”. For the same molecule, the fraction unbound [2] was roughly 0.05, the “protein binding (in words)” value [3] was “highly protein bound” and the oral absorption ([3]; suspensions, drops, caplets, chewable tablets) was “well absorbed orally”. The inhibition of proliferation (A-427) was “inhibits the proliferation”, the inhibition of proliferation (MCF 7/s) was “inhibits the proliferation” and the “APPs secretion (in words)” value [4] was “increased APPs secretion”. The “content of membrane APP of rat brain (in words)” value (APP) was “decreased content of membrane APP of rat brain, but not significantly”, the “content of cytosolic APPs of rat brain (in words)” value (APPs) was “increased the content of cytosolic APPs” and the inhibition of proliferation (UACC 375) was “inhibits the proliferation”. The “blocking of neutrophil activation” value (neutrophil) was “blocks neutrophil activation by chemotactic agents but this effect is not enantioselective”, the anticancer activity (rat colon cancer) was “demonstrated anticancer activity” and the anticancer activity [5] was “demonstrated anticancer activity”.
